In patent US9302999B2, “Substituted triazoles as herbicides” (E. I. DU PONT DE NEMOURS AND COMPANY, priority 2012, dated 2016):

What was measured:
Assay type in all cases: in vivo
[1] = test system: Field Violet (VIOAR, Viola arvennsis); test: Test H post-emergence, alone and in combination: Field Violet
Excerpt: (§1) Seeds of plant species selected from wheat (TRZAW, Triticum aestivum), barley (HORBW, Hordeum vulgare), Kochia (KCHSC, Kochia caoparia) blackgrass (ALOMY, Alopecurus myosuroides), canarygrass (PHAMI, Phalaris minor), Italian ryegrass (LOLMU, Lolium multiflorum) common lambsquarter (CHEAL, Chenopodium album), pigweed (AMARE, Amaranthus retroflexus), Common Chickweed (STEME, Stellaria media), Russian thistle (SASKR, Salsola iberica), Wild Buckwheat (POLCO, Polygonum convolvulus), Catchweed Bedstraw (GALAP, Galium aparine), Mustard (SINAR, Sinapisar arvensis), Henbit Deadnettle (LAMAM, Lamium amplexicaule), Wild Radish (RAPRA, Raphanus raphanistrum), Field Poppy (PAPRH, Papaver rhoeas), Field Violet (VIOAR, Viola arvennsis), Scentless Chamomile (MATIN Matricaria inodora) were planted into soil and treated post-emergence with test chemicals formulated in a non-phytotoxic solvent mixture. Plants were grown in a greenhouse using supplemental lighting to maintain a photoperiod of approximately 14 hours; daytime and nighttime temperatures were approximately 23°-29° and 16°-19° Celsius, respectively. Balanced fertilizer was applied through the watering system. Treated plants and controls were maintained in a greenhouse for 20 days, after which time all species were compared to controls and visually evaluated. Plant response ratings were calculated as the mean of three replicates (unless otherwise indicated), are summarized in Table G, and are based on a scale of 0 to 100 where 0 is no effect and 100 is complete control. A dash (-) response means no test result.

[2] = test system: Common Chickweed (STEME, Stellaria media); test: Test H post-emergence, alone and in combination: Common Chickweed
Excerpt: as §1

[3] = test system: Catchweed Bedstraw (GALAP, Galium aparine); test: Test H post-emergence, alone and in combination: Catchweed Bedstraw
Excerpt: as §1

[4] = test system: barley (HORBW, Hordeum vulgare); test: Test H post-emergence, alone and in combination: barley
Excerpt: as §1

[5] = test system: canarygrass (PHAMI, Phalaris minor); test: Test H post-emergence, alone and in combination: canarygrass
Excerpt: as §1

[6] = test system: Wild Radish (RAPRA, Raphanus raphanistrum); test: Test H post-emergence, alone and in combination: Wild Radish
Excerpt: as §1

[7] = test system: blackgrass (ALOMY, Alopecurus myosuroides); test: Test H post-emergence, alone and in combination: blackgrass
Excerpt: as §1

[8] = test system: Kochia (KCHSC, Kochia caoparia); test: Test H post-emergence, alone and in combination: Kochia
Excerpt: as §1

[9] = test system: Henbit Deadnettle (LAMAM, Lamium amplexicaule); test: Test H post-emergence, alone and in combination: Henbit Deadnettle
Excerpt: as §1

[10] = test system: Russian thistle (SASKR, Salsola iberica); test: Test H post-emergence, alone and in combination: Russian thistle
Excerpt: as §1

[11] = test system: Field Poppy (PAPRH, Papaver rhoeas); test: Test H post-emergence, alone and in combination: Field Poppy
Excerpt: as §1

[12] = test system: Scentless Chamomile (MATIN Matricaria inodora); test: Test H post-emergence, alone and in combination: Scentless Chamomile
Excerpt: as §1

[13] = test system: Mustard (SINAR, Sinapisar arvensis); test: Test H post-emergence, alone and in combination: Mustard
Excerpt: as §1

## Cc1nn(-c2ccc(F)cc2)nc1Oc1ccnc(C(F)(F)F)c1 [Compound 129, 4-[[2-(4-fluorophenyl)-5-methyl-2H-1,2,3-triazol-4-yl]oxy]-2-(trifluoromethyl)pyridine]
[1]; Rate 31
  VIOAR plant response: 60
[1]; Rate 62
  VIOAR plant response: 75
[1]; Rate 125
  VIOAR plant response: 90
[2]; Rate 31
  STEME plant response: 50
[2]; Rate 62
  STEME plant response: 70
[2]; Rate 125
  STEME plant response: 80
[3]; Rate 31
  GALAP plant response: 65
[3]; Rate 62
  GALAP plant response: 60
[3]; Rate 125
  GALAP plant response: 70
[4]; Rate 31
  HORBW plant response: 10
[4]; Rate 62
  HORBW plant response: 15
[4]; Rate 125
  HORBW plant response: 15
[5]; Rate 31
  PHAMI plant response: 15
[5]; Rate 62
  PHAMI plant response: 20
[5]; Rate 125
  PHAMI plant response: 60
[6]; Rate 31
  RAPRA plant response: 60
[6]; Rate 62
  RAPRA plant response: 85
[6]; Rate 125
  RAPRA plant response: 90
[7]; Rate 31
  ALOMY plant response: 5
[7]; Rate 62
  ALOMY plant response: 10
[7]; Rate 125
  ALOMY plant response: 30
[8]; Rate 31
  KCHSC plant response: 80
[8]; Rate 62
  KCHSC plant response: 85
[8]; Rate 125
  KCHSC plant response: 95
[9]; Rate 31
  LAMAM plant response: 60
[9]; Rate 62
  LAMAM plant response: 70
[9]; Rate 125
  LAMAM plant response: 80
[10]; Rate 31
  SASKR plant response: 65
[10]; Rate 62
  SASKR plant response: 80
[10]; Rate 125
  SASKR plant response: 90
[11]; Rate 31
  PAPRH plant response: 85
[11]; Rate 62
  PAPRH plant response: 90
[11]; Rate 125
  PAPRH plant response: 90
[12]; Rate 31
  MATIN plant response: 0
[12]; Rate 62
  MATIN plant response: 5
[12]; Rate 125
  MATIN plant response: 10
[13]; Rate 31
  SINAR plant response: 80
[13]; Rate 62
  SINAR plant response: 95
[13]; Rate 125
  SINAR plant response: 95
